This note sets out measurements from patent US10906876B2, “Tetrahydroisoquinolines as selective NADPH oxidase 2 inhibitors” (University of Pittsburgh—Of the Commonwealth System of …, priority 2013, dated 2021).

SMILES strings stand for the structures. “And” between values parts separate entries of the source, which are not always exact repeats. Equal entries are not always repeated.

The target in one test is T1, Nox5 (Homo sapiens, UniProt Q96PH1).
T1 construct: expressed in transfected cells; host or cells: HEK-Nox5 cells (gift of D. Fulton)
T1 sequence (Q96PH1 19-737 isoform Q96PH1-3 limits assumed): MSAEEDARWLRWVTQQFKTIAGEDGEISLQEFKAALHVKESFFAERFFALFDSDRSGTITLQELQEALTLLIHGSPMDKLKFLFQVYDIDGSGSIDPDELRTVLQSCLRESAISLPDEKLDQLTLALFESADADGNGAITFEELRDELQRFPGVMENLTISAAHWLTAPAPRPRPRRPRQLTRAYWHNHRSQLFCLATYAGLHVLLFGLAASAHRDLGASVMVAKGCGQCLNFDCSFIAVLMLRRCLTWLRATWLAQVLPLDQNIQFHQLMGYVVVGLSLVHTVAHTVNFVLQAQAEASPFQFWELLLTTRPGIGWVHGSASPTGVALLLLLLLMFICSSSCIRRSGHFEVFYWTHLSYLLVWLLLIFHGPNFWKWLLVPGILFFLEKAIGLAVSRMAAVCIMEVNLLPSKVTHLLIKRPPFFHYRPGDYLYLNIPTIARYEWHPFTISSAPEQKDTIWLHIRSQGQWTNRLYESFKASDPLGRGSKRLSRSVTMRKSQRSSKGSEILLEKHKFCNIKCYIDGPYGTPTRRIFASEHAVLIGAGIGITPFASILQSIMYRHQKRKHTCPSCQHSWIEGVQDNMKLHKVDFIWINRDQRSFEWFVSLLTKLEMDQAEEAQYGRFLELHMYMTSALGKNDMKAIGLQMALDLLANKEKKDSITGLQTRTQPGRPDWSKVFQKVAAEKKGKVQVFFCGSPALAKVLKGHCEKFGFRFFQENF
As to the kind of experiment: Nox5 activity in HEK-Nox5 cells, L-012 assay. The format is cell-based. The note with it: for IC50: HEK-Nox5 cells stimulated with 1 μM PMA and 0.5 ionomycin, L-012, read-out: IC50 of ROS generation, Nox5 (L-012 assay); for Nox5 inhibitory activity: Table 2. The source says: (§1) All cell culture reagents were obtained from Invitrogen, unless indicated. COS-22 (COS-7 cells stably expressing human p22^phox) and COS-Nox2 (a.k.a. COS-phox) cells (COS-7 cells stably expressing human p22^phox, Nox2, p47^phox and p67^phox) were kindly provided by Dr. Mary C. Dinauer (Indiana University, School of Medicine) (Price et al., Blood, 2002, 99:2653-2661). COS-22 cells were maintained in Dulbecco's Modified Eagle Medium (DMEM) with 4.5 g/L glucose, L-glutamine and sodium pyruvate containing 10% heat-inactivated fetal bovine serum (FBS), 100 units/ml penicillin and 100 μg/ml streptomycin (complete media) supplemented with 1.8 mg/ml G418 (Calbiochem/EMB Bioscience, Gibbstown, N.J.). COS-Nox2 cells were maintained in complete media supplemented with 1.8 mg/mL G418, 1 μg/mL puromycin (Sigma, St Louis, Mo.) and 0.2 mg/mL hygromycin B (Invitrogen, Carlsbad, Calif.). HEK-Nox5 cells were kindly provided by Dr. David Fulton (Georgia Health Sciences University) and maintained in complete media.
COS-Nox2, COS-Nox1/NOXO1/NOXA1, HEK-Nox5 and COS-22 cells were re-plated in OPTIMEM into 384-well white micro-plates (Greiner-Bio One GmbH, Germany) at a density of 2.5×10^3 cells/well for COS-Nox2 and 5×10^4 cells/well for all others. The cells were incubated at 37° C. in PBS containing 400 μm L-012 for 10 min. […] Since Nox1 was constitutively active, Nox1-derived O2^•− was assessed by comparison to non-transfected cells (Cos22). Luminescence was quantified over time using a Biotek Synergy 4 Hybrid Multi-Mode Microplate Reader. The specificity of L-012 for O2^•− was confirmed by the addition of SOD (150 U/mL).
(§2) All data are expressed as means±SEM. IC50 values were determined using the GraphPad Prism software (GraphPad Software, San Diego, Calif.) for non-linear regression three-parameters, with constrain values of 100 and 0 for top and bottom, respectively, and assumes a Hill slope of 1.

For a further test, the target named is T2, Nox2 (Homo sapiens, UniProt P04839).
T2 construct: expressed in transfected cells
T2 sequence (P04839 2-570 limits assumed): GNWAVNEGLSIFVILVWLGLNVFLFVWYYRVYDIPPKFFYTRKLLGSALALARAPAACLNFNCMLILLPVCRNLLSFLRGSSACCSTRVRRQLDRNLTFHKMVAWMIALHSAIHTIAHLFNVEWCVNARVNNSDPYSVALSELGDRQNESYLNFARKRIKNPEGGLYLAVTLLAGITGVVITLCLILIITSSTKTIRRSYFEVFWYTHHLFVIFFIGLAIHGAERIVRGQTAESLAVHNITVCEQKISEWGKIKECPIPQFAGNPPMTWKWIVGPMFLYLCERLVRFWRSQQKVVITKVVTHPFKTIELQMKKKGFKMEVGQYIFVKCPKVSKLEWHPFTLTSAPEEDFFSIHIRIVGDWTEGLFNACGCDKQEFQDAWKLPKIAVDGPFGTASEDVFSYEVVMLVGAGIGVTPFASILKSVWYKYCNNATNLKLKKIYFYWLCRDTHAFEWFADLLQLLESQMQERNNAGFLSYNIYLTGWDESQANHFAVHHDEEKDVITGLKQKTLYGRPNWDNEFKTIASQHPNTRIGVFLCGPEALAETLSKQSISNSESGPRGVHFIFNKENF
The test can be described thus: ROS (superoxide) generation in whole COS-Nox2 cells, L-012 chemiluminescence. Format: cell-based. The note with it: for IC50: whole COS-Nox2 cells stimulated with 5 μM PMA; for Activity in primary library screen: screened at 100, 50, 25, and 12.5 μM, COS-Nox2 cells.
Source text: as §1
COS-Nox2, COS-Nox1/NOXO1/NOXA1, HEK-Nox5 and COS-22 cells were re-plated in OPTIMEM into 384-well white micro-plates (Greiner-Bio One GmbH, Germany) at a density of 2.5×10^3 cells/well for COS-Nox2 and 5×10^4 cells/well for all others. The cells were incubated at 37° C. in PBS containing […] L-012 for 10 min. Reaction was initiated by addition of 5 μM PMA in the case of Nox2 or 1 μM PMA/0.1 μM Ionomycin in the case of Nox5. Since Nox1 was constitutively active, Nox1-derived O2^•− was assessed by comparison to non-transfected cells (Cos22). Luminescence was quantified over time using a Biotek Synergy 4 Hybrid Multi-Mode Microplate Reader. The specificity of L-012 for O2^•− was confirmed by the addition of SOD (150 U/mL).
as §2
Heterologous Nox1, 2, 4, and 5 cell systems were used as a testing paradigm to identify a probe molecule that inhibits Nox2 selectively over Nox1, 4, and 5. An acceptable probe would also show a lack of activity against XO, which also produces ROS. The latter screen would serve two purposes: (1) to eliminate drugs that inhibit an oxidase of distinct composition; and (2) to preclude agents that directly scavenge ROS. A cell-based primary assay using stable Nox2-transfected COS cells (Price et al., Blood 2002, 99:2653-2661) with L-012 chemiluminescence (Daiber et al., Free Radic. Biol. Med. 2004, 36:101-111) was used as a detection system for O2^•−-generation.

For `C=C(C)CC1C2c3c(Br)cccc3C(CC2(C)C)N1Cc1cccc(F)c1` (racemic) [Compound 11f, (±)-(1S,4R,9S)-5-Bromo-10-(3-fluorobenzyl)-3,3-dimethyl-9-(2-methylallyl)-1,2,3,4-tetrahydro-1,4-(epiminomethano)naphthalene], on Nox5, the IC50 was found to be 79 ± 30 µM and the “Nox5 inhibitory activity” value is on record as “inhibited”. The IC50 on Nox2 was 68 ± 22 µM.

In the case of `C=C(C)CC1C2c3c(-c4ccc(Cl)c(Cl)c4)cccc3C(CC2(C)C)N1CCCCC` (racemic) [Compound 12c], the IC50 on Nox5 and at Nox2 was over 100 µM throughout.

On to `C=C(C)CC1C2c3c(Br)cccc3C(CC2(C)C)N1S(C)(=O)=O` (racemic) [Compound 14a, (±)-(1S,4R,9S)-5-Bromo-3,3-dimethyl-9-(2-methylallyl)-10-(methylsulfonyl)-1,2,3,4-tetrahydro-1,4-(epiminomethano)naphthalene], for which the IC50 on Nox5 and on Nox2 was over 100 µM throughout.

On to `CC(C)CC1NC2CC(C)(C)C1c1c(Br)cccc12` (racemic) [Compound 13], for which, on Nox5, the IC50 was 18 ± 1 µM and the “Nox5 inhibitory activity” value is listed as “retained inhibitory activity”. The IC50 at Nox2 was determined as 31 ± 3.8 µM.

As to `C=C(C)CC1NC2CC(C)(C)C1c1c(-c3ccc(Cl)c(Cl)c3)cccc12` (racemic) [Compound 12a, (±)-(1S,4R,9S)-5-(3,4-Dichlorophenyl)-3,3-dimethyl-9-(2-methylallyl)-1,2,3,4-tetrahydro-1,4-(epiminomethano)naphthalene], on Nox5, the IC50 was found to be 14 ± 0.6 µM and the “Nox5 inhibitory activity” value was “comparable”. For the same molecule, at Nox2, the IC50 is 9 ± 0.9 µM.

`C=C(C)CC1C2c3c(Br)cccc3C(CC2(C)C)N1Cc1cccs1` (racemic) [Compound 11h, (±)-(1S,4R,9S)-5-Bromo-3,3-dimethyl-9-(2-methylallyl)-10-(thiophen-2-ylmethyl)-1,2,3,4-tetrahydro-1,4-(epiminomethano)naphthalene]: on Nox5, the IC50 is over 100 µM and the “Nox5 inhibitory activity” value is “virtually no effect”. The IC50 on Nox2 was found to be 38 ± 11 µM.

For the molecule `C=C(C)C[C@@H]1N[C@H]2CC(C)(C)[C@@H]1c1c(Br)ccc(Br)c12` [Compound 9], at Nox5, the IC50 was 36 µM and the “Nox5 inhibitory activity” value was “active”. On Nox2, the “Activity in primary library screen” value is on record as “active” and the IC50 is 40 ± 2.8 µM.

As for `C=C(C)CC1C2c3c(Br)cccc3C(CC2(C)C)N1Cc1c[nH]c2ccccc12` (racemic) [Compound 11c, (±)-(1S,4R,9S)-10-((1H-Indol-3-yl)methyl)-5-bromo-3,3-dimethyl-9-(2-methylallyl)-1,2,3,4-tetrahydro-1,4-(epiminomethano)naphthalene], the IC50 at Nox5 and on Nox2 was over 100 µM in each case.

Take `C=C(C)CC1C2c3c(-c4ccc(Cl)c(Cl)c4)cccc3C(CC2(C)C)N1Cc1ccc2c(c1)OCO2` (racemic) [Compound 12b, (±)-(1S,4R,9S)-10-(Benzo[d][1,3]dioxol-5-ylmethyl)-5-(3,4-dichlorophenyl)-3,3-dimethyl-9-(2-methylallyl)-1,2,3,4-tetrahydro-1,4-(epiminomethano)-naphthalene]: the IC50 on Nox5 and on Nox2 was over 100 µM in each case.

Turning to `C=C(C)CC1C2c3c(Br)cccc3C(CC2(C)C)N1Cc1ccnc2ccccc12` (racemic) [Compound 11b, (±)-(1S,4R,9S)-5-Bromo-3,3-dimethyl-9-(2-methylallyl)-10-(quinolin-4-ylmethyl)-1,2,3,4-tetra-hydro-1,4-(epiminomethano)naphthalene], the IC50 on Nox5 and at Nox2 was over 100 µM in each case.

Turning to `C=C(C)CC1C2c3c(Br)cccc3C(CC2(C)C)N1S(=O)(=O)c1ccc(F)cc1` (racemic) [Compound 14b, (±)-(1S,4R,9S)-5-Bromo-10-((4-fluorophenyl)sulfonyl)-3,3-dimethyl-9-(2-methylallyl)-1,2,3,4-tetrahydro-1,4-(epiminomethano)naphthalene], the IC50 at Nox5 and at Nox2 was over 100 µM each time.

Take `C=C(C)CC1C2c3c(Br)cccc3C(CC2(C)C)N1Cc1ccc2c(c1)OCO2` (racemic) [Compound 11d, (±)-(1S,4R,9S)-10-(Benzo[d][1,3]dioxol-5-ylmethyl)-5-bromo-3,3-dimethyl-9-(2-methylallyl)-1,2,3,4-tetrahydro-1,4-(epiminomethano)naphthalene]: the IC50 is over 100 µM on Nox5 and 88 ± 22 µM on Nox2.

For the molecule `C=C(C)CC1NC2CC(C)(C)C1c1c(Br)cccc12` (racemic) [Compound 7, (±)-(1S,4R,9S)-5-Bromo-3,3-dimethyl-9-(2-methylallyl)-1,2,3,4-tetrahydro-1,4-(epimino-methano)-naphthalene], on Nox5, the IC50 worked out at 20 ± 3.1 µM and the “Nox5 inhibitory activity” value is “active”. At Nox2, the “Activity in primary library screen” value is reported as “hit”; the IC50 is 45 µM and 46 µM.

Take `C=C(C)CC1C2c3c(Br)cccc3C(CC2(C)C)N1Cc1cc(C)on1` (racemic) [Compound 11e, (±)-3-(1S,4R,9S)-5-Bromo-3,3-dimethyl-9-(2-methylallyl)-1,2,3,4-tetrahydro-1,4-(epimino-methano) naphthalen-10-yl)methyl)-5-methylisoxazole]: on Nox5, the IC50 is 31 ± 11 µM and the “Nox5 inhibitory activity” value is “inhibited”. Besides, the IC50 at Nox2 is 48 ± 23 µM.
